Numbers after ± are expanded uncertainties.
Details: Liquid, Ebulliometric method (Recirculating still)

SMILES | vapor or sublimation pressure (267.67 K) [kPa] | vapor or sublimation pressure (272.54 K) [kPa] | vapor or sublimation pressure (277.45 K) [kPa] | vapor or sublimation pressure (282.62 K) [kPa]
FC(F)=C(F)Cl [1-chloro-1,2,2-trifluroethene] | 248 ± 1 | 294.4 ± 1.2 | 347.8 ± 1.4 | 408.1 ± 1.6
C=COC(F)(F)F [perfluoromethyl vinyl ether] | 222.4 ± 0.9 | 264.7 ± 1.1 | 313.2 ± 1.3 | 367.3 ± 1.5

Source: the NIST ThermoML archive (doi:10.1021/je7001144)
